Assay results published in ChEMBL document CHEMBL1125506, “Fluoronaphthyridines as antibacterial agents. 6. Synthesis and structure-activity relationships of new chiral 7-(1-, 3-, 4-, and 6-methyl-2,5-diazabicyclo[2.2.1]heptan-2-yl)naphthyridine analogues of 7-[(1R,4R)-2,5- diazabicyclo[2.2.1]heptan-2-yl]-1-(1,1-dimethylethyl)-6-fluoro-1,4-dihy …” (J Med Chem, 1992).

Key:
[1] = Solubility (water, 22C, pH 7.2); assay type: physicochemical; settings: read-out: S
[2] = system: Bacteroides fragilis; test: In vitro antibacterial activity against Bacteroides fragilis A-22,862; assay type: functional
[3] = system: Escherichia coli; test: In vitro antibacterial activity against Escherichia coli A15119; assay type: functional
[4] = system: Enterobacter cloacae; test: In vitro antibacterial activity against Enterobacter cloacae A9656; assay type: functional
[5] = system: Enterococcus faecalis; test: In vitro antibacterial activity against Enterococcus faecalis A9809; assay type: functional
[6] = system: Klebsiella pneumoniae; test: In vitro antibacterial activity against Klebsiella pneumoniae A9664; assay type: functional
[7] = system: Morganella morganii; test: In vitro antibacterial activity against Morganella morganii A15153; assay type: functional
[8] = system: Pseudomonas aeruginosa; test: In vitro antibacterial activity against Pseudomonas aeruginosa A9843; assay type: functional
[9] = system: Proteus mirabilis; test: In vitro antibacterial activity against Proteus mirabilis A9900; assay type: functional
[10] = system: Staphylococcus aureus; test: In vitro antibacterial activity against Staphylococcus aureus A9537; assay type: functional
[11] = system: Serratia marcescens; test: In vitro antibacterial activity against Serratia marcescens A20019; assay type: functional
[12] = system: Streptococcus pneumoniae; test: In vitro antibacterial activity against Streptococcus pneumoniae A9585.; assay type: functional
[13] = Partition coefficient (logD); assay type: physicochemical; settings: octanol/water
[14] = Peak concentration in blood after intravenous administration to mice; assay type: ADME, organism-based; parameters: route intravenous; settings: mouse
[15] = Peak concentration in blood after peroral administration to mice; assay type: ADME, organism-based; parameters: route oral; settings: mouse, po
[16] = system: Mus musculus; test: Area under curve measured as conc vs time after intravenous administration to mice.; assay type: ADME, organism-based; parameters: unit not given here; settings: in vivo
[17] = system: Mus musculus; test: Area under curve measured as conc vs time after peroral administration to mice.; assay type: ADME, organism-based; parameters: unit not given here; settings: in vivo, po
[18] = Plasma half-life after intravenous administration to mice; assay type: ADME, organism-based; settings: mouse
[19] = Plasma half-life after peroral administration to mice; assay type: ADME, organism-based; settings: mouse, po
[20] = percent urinary recovery in 24 hr after intravenous administration to mice; assay type: ADME, organism-based; settings: mouse, urine, read-out: UR
[21] = Percent urinary recovery in 24 hr after peroral administration to mice; assay type: ADME, organism-based; settings: mouse, urine, po; read-out: UR
[22] = system: Mus musculus; test: In vivo efficacy on systemic infections caused by Pseudomonas aeruginosa A9843 in mice after peroral administration; assay type: functional; settings: po, read-out: PD50
[23] = system: Mus musculus; test: In vivo efficacy on systemic infections caused by Staphylococcus aureus A15090 in mice after peroral administration; assay type: functional; settings: po, read-out: PD50
[24] = system: Mus musculus; test: In vivo efficacy on systemic infections caused by Pseudomonas aeruginosa A9843 in mice after intramuscular administration; assay type: functional; settings: im, read-out: PD50
[25] = system: Mus musculus; test: In vivo efficacy on systemic infections caused by Escherichia coli A15119 in mice after intramuscular administration; assay type: functional; settings: im, read-out: PD50
[26] = system: Mus musculus; test: In vivo efficacy on systemic infections caused by Staphylococcus aureus A15090 in mice after intramuscular administration; assay type: functional; settings: im, read-out: PD50
[27] = system: Mus musculus; test: In vivo efficacy on systemic infections caused by Streptococcus pneumoniae A9585 in mice after intramuscular administration; assay type: functional; settings: im, read-out: PD50
[28] = system: Mus musculus; test: In vivo efficacy on systemic infections caused by Streptococcus pneumoniae A9585 in mice after peroral administration; assay type: functional; settings: po, read-out: PD50
[29] = Acute toxicity after intravenous administration to mice; assay type: organism-based; settings: mouse, in vivo
[30] = Acute toxicity after peroral administration to mice; assay type: organism-based; settings: mouse, in vivo, po

| Structure (SMILES) | solubility [1] [µg/mL] | MIC [2] [µg/mL] | MIC [3] [µg/mL] | MIC [4] [µg/mL] | MIC [5] [µg/mL] | MIC [6] [µg/mL] | MIC [7] [µg/mL] | MIC [8] [µg/mL] | MIC [9] [µg/mL] | MIC [10] [µg/mL] | MIC [11] [µg/mL] | MIC [12] [µg/mL] | logD [13] | Cmax [14] [ng/mL] | Cmax [15] [ng/mL] | AUC [16] | AUC [17] | half-life [18] [h] | half-life [19] [h] | dose excreted at 24 h [20] [%] | also measured |
| --- | --- | --- | --- | --- | --- | --- | --- | --- | --- | --- | --- | --- | --- | --- | --- | --- | --- | --- | --- | --- | --- |
| CC(C)(C)n1cc(C(=O)O)c(=O)c2cc(F)c(N3C[C@@]4(C)C[C@@H]3CN4)nc21.Cl | 67 | 16 | 0.03 | 0.016 | 1 | 0.03 | 0.25 | 1 | 0.25 | 0.03 | 0.13 | 0.5 | 0.02 | – | – | – | – | – | – | – | – |
| Cc1c(F)c(N2[C@H]3CN[C@H](C3)[C@@H]2C)nc2c1c(=O)c(C(=O)O)cn2C1CC1.Cl | 70 | 4 | 0.016 | 0.016 | 0.25 | 0.016 | 0.13 | 0.25 | 0.13 | 0.016 | 0.13 | 0.13 | 0.73 | – | – | – | – | – | – | – | – |
| CC(C)(C)n1cc(C(=O)O)c(=O)c2cc(F)c(N3C[C@H]4C[C@]3(C)CN4)nc21.Cl | 6 | 64 | 0.25 | 0.25 | 16 | 0.5 | 2 | 4 | 2 | 1 | 1 | 2 | -0.37 | – | – | – | – | – | – | – | – |
| C[C@H]1[C@H]2C[C@H](CN2)N1c1nc2c(cc1F)c(=O)c(C(=O)O)cn2C(C)(C)C.Cl | 1330 | 8 | 0.03 | 0.13 | 1 | 0.5 | 1 | 2 | 1 | 0.06 | 0.25 | 1 | -0.22 | 22000 | 9000 | 22 | 17 | 1.22 | 1.08 | 16 | dose excreted at 24 h [21]: 16%; ED50 [22]: 22 mg/kg; ED50 [23]: 5.4 mg/kg; ED50 [24]: 12.5 mg/kg |
| Cc1c(F)c(N2C[C@H]3C[C@@H]2[C@H](C)N3)nc2c1c(=O)c(C(=O)O)cn2C(C)(C)C.Cl | 250 | 16 | 0.03 | 0.03 | 0.5 | 0.13 | 0.5 | 2 | 0.5 | 0.016 | 0.5 | 0.5 | 1.3 | – | – | – | – | – | – | – | – |
| Cc1c(F)c(N2C[C@H]3C[C@@H]2[C@@H](C)N3)nc2c1c(=O)c(C(=O)O)cn2C1CC1.Cl | 150 | 8 | 0.016 | 0.06 | 0.25 | 0.06 | 0.25 | 1 | 0.25 | 0.016 | 0.5 | 0.13 | 0.71 | – | – | – | – | – | – | – | – |
| Cc1c(F)c(N2C[C@H]3C[C@@H]2[C@H](C)N3)nc2c1c(=O)c(C(=O)O)cn2C1CC1.Cl | 6 | 2 | 0.004 | 0.016 | 0.13 | 0.016 | 0.06 | 0.13 | 0.06 | 0.016 | 0.13 | 0.06 | 0.71 | 12000 | 6000 | 59 | 41 | 4.8 | 4.2 | 16 | dose excreted at 24 h [21]: 18%; ED50 [25]: 0.1 mg/kg; ED50 [22]: 0.34 mg/kg; ED50 [26]: 0.34 mg/kg; ED50 [23]: 1.8 mg/kg; ED50 [27]: 18.9 mg/kg; ED50 [28]: 18.9 mg/kg; ED50 [24]: 0.78 mg/kg |
| Cc1c(F)c(N2[C@H]3CN[C@H](C3)[C@H]2C)nc2c1c(=O)c(C(=O)O)cn2C1CC1.Cl | 220 | 8 | 0.016 | 0.06 | 0.025 | 0.06 | 0.25 | 2 | 0.5 | 0.03 | 0.5 | 0.25 | 1 | – | – | – | – | – | – | – | – |
| C[C@H]1N[C@@H]2C[C@H]1N(c1nc3c(cc1F)c(=O)c(C(=O)O)cn3C(C)(C)C)C2.Cl | 6340 | 4 | 0.03 | 0.06 | 1 | 0.5 | 1 | 2 | 0.5 | 0.06 | 0.25 | 0.5 | -0.12 | 23000 | 11000 | 18 | 8 | 0.75 | 0.733 | 18 | dose excreted at 24 h [21]: 17%; ED50 [22]: 9.5 mg/kg; ED50 [23]: 16.5 mg/kg; ED50 [24]: 12.5 mg/kg |
| C[C@@H]1N[C@@H]2C[C@H]1N(c1nc3c(cc1F)c(=O)c(C(=O)O)cn3C(C)(C)C)C2.Cl | 25 | 2 | 0.008 | 0.03 | 0.25 | 0.03 | 0.13 | 0.5 | 0.13 | 0.03 | 0.13 | 0.25 | 0.1 | 22000 | 9000 | 22 | 41 | 1.22 | 2.63 | 16 | dose excreted at 24 h [21]: 18%; LD50 [29]: 263 mg/kg; LD50 [30]: > 2500 mg/kg; ED50 [22]: 2.7 mg/kg; ED50 [26]: 0.9 mg/kg; ED50 [23]: 1.6 mg/kg; ED50 [27]: 14.4 mg/kg; ED50 [28]: 25 mg/kg; ED50 [24]: 1.6 mg/kg |
